# Experimental data taken from ChEMBL document CHEMBL1201862, “PubChem BioAssay data set” (2004).
#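 Exposure lasted 48 hours, with cells grown in 96-well plates and compounds tested at five concentrations. At the GI50, growth is halved.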 Active and inactive are the calls of the source. Cut-off read from the data, not from the text of the source: active = GI50 up to about 1.1 µM and inactive = higher.
# Experiments:
# Experiment in all cases: DTP human tumour cell line panel, 48 h
# OVCAR-8 = test system: OVCAR-8
# SN12C = test system: SN12C
# UACC-257 = test system: UACC-257
# HOP-18 = test system: HOP-18
# SK-OV-3 = test system: SK-OV-3
# KM-20L2 = test system: KM-20L2
# UACC-62 = test system: UACC-62
# A549 = test system: A549
# HCT-116 = test system: HCT-116
# ACHN = test system: ACHN
# DLD-1 = test system: DLD-1
# LXFL 529 = test system: LXFL 529
# LOX IMVI = test system: LOX IMVI
# U-251 = test system: U-251
# SK-MEL-2 = test system: SK-MEL-2
# DMS-273 = test system: DMS-273
# OVCAR-4 = test system: OVCAR-4
# KM12 = test system: KM12
# HOP-92 = test system: HOP-92
# SF-295 = test system: SF-295
# SF-539 = test system: SF-539
# SNB-19 = test system: SNB-19
# SNB-75 = test system: SNB-75
# NCI-H522 = test system: NCI-H522
# XF498 = test system: XF498
# M14 = test system: M14
# HCC 2998 = test system: HCC 2998
# SK-MEL-5 = test system: SK-MEL-5
# K562 = test system: K562
# SF-268 = test system: SF-268
# MOLT-4 = test system: MOLT-4
# HT-29 = test system: HT-29
# HOP-62 = test system: HOP-62
# TK-10 = test system: TK-10
# NCI-H23 = test system: NCI-H23
# NCI-H460 = test system: NCI-H460
# CCRF-CEM = test system: CCRF-CEM
# 786-0 = test system: 786-0
# COLO 205 = test system: COLO 205
# NCI-H226 = test system: NCI-H226
# M19-MEL = test system: M19-MEL
# IGROV-1 = test system: IGROV-1
# RXF 393 = test system: RXF 393
# A498 = test system: A498
# CAKI-1 = test system: CAKI-1
# SR = test system: SR
# EKVX = test system: EKVX
# HL-60 = test system: HL-60
# SW-620 = test system: SW-620
# OVCAR-3 = test system: OVCAR-3
# RPMI-8226 = test system: RPMI-8226
# UO-31 = test system: UO-31
# HCT-15 = test system: HCT-15
# SK-MEL-28 = test system: SK-MEL-28
# Malme-3M = test system: Malme-3M
# OVCAR-5 = test system: OVCAR-5
# SNB-78 = test system: SNB-78
# DMS-114 = test system: DMS-114
smiles,measurement,setting,value
CN(C)CN(C)c1nc(N(C)C)nc(N(C)CN(C)C)n1,GI50,OVCAR-8,27.9 µM (inactive)
same,GI50,SN12C,63.5 µM (inactive)
same,GI50,UACC-257,34.7 µM (inactive)
same,GI50,HOP-18,> 100 µM (inactive)
same,GI50,SK-OV-3,> 100 µM (inactive)
same,GI50,KM-20L2,74.5 µM (inactive)
same,GI50,UACC-62,19.8 µM (inactive)
same,GI50,A549,> 100 µM (inactive)
same,GI50,HCT-116,32 µM (inactive)
same,GI50,ACHN,45.4 µM (inactive)
same,GI50,DLD-1,42.7 µM (inactive)
same,GI50,LXFL 529,30.3 µM (inactive)
same,GI50,LOX IMVI,22.9 µM (inactive)
same,GI50,U-251,> 100 µM (inactive)
same,GI50,SK-MEL-2,20.9 µM (inactive)
same,GI50,DMS-273,17.5 µM (inactive)
same,GI50,OVCAR-4,42.4 µM (inactive)
same,GI50,KM12,> 100 µM (inactive)
same,GI50,HOP-92,63 µM (inactive)
same,GI50,SF-295,> 100 µM (inactive)
same,GI50,SF-539,50.4 µM (inactive)
same,GI50,SNB-19,> 100 µM (inactive)
same,GI50,SNB-75,60.3 µM (inactive)
same,GI50,NCI-H522,> 100 µM (inactive)
same,GI50,XF498,96.2 µM (inactive)
same,GI50,M14,36.7 µM (inactive)
same,GI50,HCC 2998,> 100 µM (inactive)
same,GI50,SK-MEL-5,51.1 µM (inactive)
same,GI50,K562,30.8 µM (inactive)
same,GI50,SF-268,51.6 µM (inactive)
same,GI50,MOLT-4,26.2 µM (inactive)
same,GI50,HT-29,57.8 µM (inactive)
same,GI50,HOP-62,> 100 µM (inactive)
same,GI50,TK-10,> 100 µM (inactive)
same,GI50,NCI-H23,27.2 µM (inactive)
same,GI50,NCI-H460,57.3 µM (inactive)
same,GI50,CCRF-CEM,25.7 µM (inactive)
same,GI50,786-0,34.4 µM (inactive)
same,GI50,COLO 205,27.8 µM (inactive)
same,GI50,NCI-H226,> 100 µM (inactive)
same,GI50,M19-MEL,31.8 µM (inactive)
same,GI50,IGROV-1,> 100 µM (inactive)
same,GI50,RXF 393,19.5 µM (inactive)
same,GI50,A498,> 100 µM (inactive)
same,GI50,CAKI-1,> 100 µM (inactive)
same,GI50,SR,24.4 µM (inactive)
same,GI50,EKVX,> 100 µM (inactive)
same,GI50,HL-60,17 µM (inactive)
same,GI50,SW-620,23.9 µM (inactive)
same,GI50,OVCAR-3,> 100 µM (inactive)
same,GI50,RPMI-8226,27.2 µM (inactive)
same,GI50,UO-31,> 100 µM (inactive)
same,GI50,HCT-15,24.7 µM
same,GI50,SK-MEL-28,25.8 µM (inactive)
c1cnc2c(c1)-n1cccc1C1(CCSC1)NN2 (centres undefined),GI50,OVCAR-8,> 100 µM (inactive)
same,GI50,SN12C,> 100 µM (inactive)
same,GI50,UACC-257,> 100 µM (inactive)
same,GI50,HOP-18,28.4 µM (inactive)
same,GI50,A549,> 100 µM (inactive)
same,GI50,HCT-116,> 100 µM (inactive)
same,GI50,ACHN,> 100 µM (inactive)
same,GI50,DLD-1,> 100 µM (inactive)
same,GI50,LOX IMVI,> 100 µM (inactive)
same,GI50,U-251,> 100 µM (inactive)
same,GI50,SK-MEL-2,> 100 µM (inactive)
same,GI50,DMS-273,> 100 µM (inactive)
same,GI50,OVCAR-4,> 100 µM (inactive)
same,GI50,KM12,> 100 µM (inactive)
same,GI50,SF-295,> 100 µM (inactive)
same,GI50,SF-539,> 100 µM (inactive)
same,GI50,SNB-19,> 100 µM (inactive)
same,GI50,SNB-75,> 100 µM (inactive)
same,GI50,NCI-H522,> 100 µM (inactive)
same,GI50,XF498,> 100 µM (inactive)
same,GI50,Malme-3M,> 100 µM (inactive)
same,GI50,M14,> 100 µM (inactive)
same,GI50,HCC 2998,> 100 µM (inactive)
same,GI50,SK-MEL-5,> 100 µM (inactive)
same,GI50,K562,> 100 µM (inactive)
same,GI50,SF-268,> 100 µM (inactive)
same,GI50,OVCAR-5,> 100 µM (inactive)
same,GI50,MOLT-4,> 100 µM (inactive)
same,GI50,HT-29,> 100 µM (inactive)
same,GI50,HOP-62,> 100 µM (inactive)
same,GI50,TK-10,> 100 µM (inactive)
same,GI50,SNB-78,> 100 µM (inactive)
same,GI50,NCI-H23,> 100 µM (inactive)
same,GI50,NCI-H460,> 100 µM (inactive)
same,GI50,CCRF-CEM,> 100 µM (inactive)
same,GI50,786-0,> 100 µM (inactive)
same,GI50,COLO 205,> 100 µM (inactive)
same,GI50,NCI-H226,> 100 µM (inactive)
same,GI50,M19-MEL,> 100 µM (inactive)
same,GI50,CAKI-1,> 100 µM (inactive)
same,GI50,SR,> 100 µM (inactive)
same,GI50,EKVX,> 100 µM (inactive)
same,GI50,HL-60,> 100 µM (inactive)
same,GI50,SW-620,> 100 µM (inactive)
same,GI50,OVCAR-3,> 100 µM (inactive)
same,GI50,RPMI-8226,> 100 µM (inactive)
same,GI50,UO-31,> 100 µM (inactive)
same,GI50,DMS-114,> 100 µM (inactive)
same,GI50,HCT-15,> 100 µM
same,GI50,SK-MEL-28,> 100 µM (inactive)
C[C@]12CCC3[C@@H](C[C@H]4OC(=O)[C@@]35CCC(=O)C=C45)C1CCC2=O (some centres undefined),GI50,OVCAR-8,> 100 µM (inactive)
same,GI50,SN12C,> 100 µM (inactive)
same,GI50,UACC-257,> 100 µM (inactive)
same,GI50,HOP-18,> 100 µM (inactive)
same,GI50,SK-OV-3,> 100 µM (inactive)
same,GI50,A549,> 100 µM (inactive)
same,GI50,ACHN,> 100 µM (inactive)
same,GI50,DLD-1,> 100 µM (inactive)
same,GI50,LXFL 529,> 100 µM (inactive)
same,GI50,U-251,> 100 µM (inactive)
same,GI50,SK-MEL-2,> 100 µM (inactive)
same,GI50,KM12,> 100 µM (inactive)
same,GI50,HOP-92,> 100 µM (inactive)
same,GI50,SF-295,> 100 µM (inactive)
same,GI50,SF-539,> 100 µM (inactive)
same,GI50,SNB-19,> 100 µM (inactive)
same,GI50,NCI-H522,> 100 µM (inactive)
same,GI50,XF498,> 100 µM (inactive)
same,GI50,Malme-3M,> 100 µM (inactive)
same,GI50,M14,> 100 µM (inactive)
same,GI50,HCC 2998,> 100 µM (inactive)
same,GI50,SK-MEL-5,> 100 µM (inactive)
same,GI50,K562,> 100 µM (inactive)
same,GI50,SF-268,> 100 µM (inactive)
same,GI50,OVCAR-5,> 100 µM (inactive)
same,GI50,MOLT-4,> 100 µM (inactive)
same,GI50,HT-29,> 100 µM (inactive)
same,GI50,TK-10,> 100 µM (inactive)
same,GI50,NCI-H23,> 100 µM (inactive)
same,GI50,NCI-H460,> 100 µM (inactive)
same,GI50,CCRF-CEM,> 100 µM (inactive)
same,GI50,786-0,> 100 µM (inactive)
same,GI50,COLO 205,> 100 µM (inactive)
same,GI50,NCI-H226,> 100 µM (inactive)
same,GI50,M19-MEL,> 100 µM (inactive)
same,GI50,IGROV-1,> 100 µM (inactive)
same,GI50,RXF 393,> 100 µM (inactive)
same,GI50,SR,> 100 µM (inactive)
same,GI50,EKVX,> 100 µM (inactive)
same,GI50,HL-60,> 100 µM (inactive)
same,GI50,SW-620,> 100 µM (inactive)
same,GI50,OVCAR-3,> 100 µM (inactive)
same,GI50,RPMI-8226,> 100 µM (inactive)
same,GI50,UO-31,> 100 µM (inactive)
same,GI50,DMS-114,> 100 µM (inactive)
same,GI50,HCT-15,> 100 µM
same,GI50,SK-MEL-28,> 100 µM (inactive)
COc1ccc(N/N=C(\CCN(C)C)c2ccccc2)cc1,GI50,OVCAR-8,12.8 µM (inactive)
same,GI50,SN12C,3.9 µM (inactive)
same,GI50,UACC-257,3.78 µM (inactive)
same,GI50,HOP-18,22.1 µM (inactive)
same,GI50,SK-OV-3,3.41 µM (inactive)
same,GI50,KM-20L2,0.489 µM (active)
same,GI50,UACC-62,1.9 µM (inactive)
same,GI50,A549,1.67 µM (inactive)
same,GI50,HCT-116,3.56 µM (inactive)
same,GI50,ACHN,1.36 µM (inactive)
same,GI50,DLD-1,1.66 µM (inactive)
same,GI50,LXFL 529,1.6 µM (inactive)
same,GI50,LOX IMVI,2.07 µM (inactive)
same,GI50,U-251,1.79 µM (inactive)
same,GI50,SK-MEL-2,4.49 µM (inactive)
same,GI50,DMS-273,3 µM (inactive)
same,GI50,OVCAR-4,4.67 µM (inactive)
same,GI50,KM12,4.73 µM (inactive)
same,GI50,SF-295,0.437 µM (active)
same,GI50,SF-539,1.68 µM (inactive)
same,GI50,SNB-19,3.01 µM (inactive)
same,GI50,SNB-75,8.04 µM (inactive)
same,GI50,NCI-H522,10.7 µM (inactive)
same,GI50,Malme-3M,11.7 µM (inactive)
same,GI50,M14,10.9 µM (inactive)
same,GI50,SK-MEL-5,6.37 µM (inactive)
same,GI50,K562,2.39 µM (inactive)
same,GI50,SF-268,1.62 µM (inactive)
same,GI50,OVCAR-5,9.57 µM (inactive)
same,GI50,MOLT-4,3.39 µM (inactive)
same,GI50,HT-29,6.85 µM (inactive)
same,GI50,HOP-62,2.1 µM (inactive)
same,GI50,TK-10,2.23 µM (inactive)
same,GI50,SNB-78,12.8 µM (inactive)
same,GI50,NCI-H23,4.43 µM (inactive)
same,GI50,NCI-H460,3.12 µM (inactive)
same,GI50,CCRF-CEM,1.41 µM (inactive)
same,GI50,786-0,3.4 µM (inactive)
same,GI50,COLO 205,2.78 µM (inactive)
same,GI50,M19-MEL,3.82 µM (inactive)
same,GI50,IGROV-1,4.18 µM (inactive)
same,GI50,RXF 393,15.7 µM (inactive)
same,GI50,A498,14.9 µM (inactive)
same,GI50,SR,3.17 µM (inactive)
same,GI50,EKVX,2.2 µM (inactive)
same,GI50,HL-60,2.82 µM (inactive)
same,GI50,SW-620,2.86 µM (inactive)
same,GI50,OVCAR-3,2.81 µM (inactive)
same,GI50,RPMI-8226,2.39 µM (inactive)
same,GI50,UO-31,1.37 µM (inactive)
same,GI50,DMS-114,10.9 µM (inactive)
same,GI50,HCT-15,1.15 µM
same,GI50,SK-MEL-28,2.69 µM (inactive)
